These results are taken from patent US10556907B2 (AbbVie Inc., priority 2015, dated 2020).

SMILES strings stand for the structures.

The term EC50 denotes the concentration at which the effect is half-maximal.

Holding throughout (experiment): Method 1: intracellular Ca2+ release (FLIPR, Calcium 5) in recombinant CHO-K1 cells
What all share (assay type): cell-based

In one assay the target is T1, human S1PR1 receptor (Homo sapiens, UniProt P21453).
T1 construct: host or cells: CHO-K1
As to conditions: (1): determined with method 1; read-out: S1P1 EC50. An outline of the steps:
(§1)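 CHO-K1 cells co-expressing the receptor, aequorin and Gq/i5 were loaded with Calcium 5 dye for 1 h at 37 °C, adapted 45 min to RT, then given serially diluted compound in HBSS/20 mmol/L Hepes/2.5 mmol/L probenecid/0.1% BSA, pH 7.4. FLIPR fluorescence was read; EC50 came from nonlinear fits normalized to phospho-fingolimod.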

The next assay deals with T2, human S1PR3 receptor (Homo sapiens, UniProt Q99500).
T2 construct: host or cells: CHO-K1
As to conditions: (1): determined with method 1; read-out: S1P3 EC50. An outline of the steps: as §1

Another assay concerns the target T3, human S1PR4 receptor (Homo sapiens, UniProt O95977).
T3 construct: host or cells: CHO-K1
T3 sequence (O95977 1-384): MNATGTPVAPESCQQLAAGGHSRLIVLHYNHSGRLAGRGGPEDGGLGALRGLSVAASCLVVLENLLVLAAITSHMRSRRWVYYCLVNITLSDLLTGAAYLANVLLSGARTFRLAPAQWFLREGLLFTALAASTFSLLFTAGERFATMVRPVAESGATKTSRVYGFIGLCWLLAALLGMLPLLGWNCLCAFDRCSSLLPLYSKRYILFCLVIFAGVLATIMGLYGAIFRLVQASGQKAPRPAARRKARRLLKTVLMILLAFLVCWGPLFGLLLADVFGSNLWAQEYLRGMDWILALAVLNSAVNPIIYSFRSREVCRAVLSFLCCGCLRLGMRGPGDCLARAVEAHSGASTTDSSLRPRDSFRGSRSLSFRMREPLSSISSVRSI
The following applies: (1): determined with method 1; read-out: S1P4 EC50. Put shortly:
as §1

Another assay has as its target T4, human S1PR5 receptor (Homo sapiens, UniProt Q9H228).
T4 construct: host or cells: CHO-K1
The following applies: agonist potency, determined with method 1 (symbols A-D); read-out: S1P5 EC50 range. An outline of the steps: as §1

T2 sequence (Q99500 whole entry): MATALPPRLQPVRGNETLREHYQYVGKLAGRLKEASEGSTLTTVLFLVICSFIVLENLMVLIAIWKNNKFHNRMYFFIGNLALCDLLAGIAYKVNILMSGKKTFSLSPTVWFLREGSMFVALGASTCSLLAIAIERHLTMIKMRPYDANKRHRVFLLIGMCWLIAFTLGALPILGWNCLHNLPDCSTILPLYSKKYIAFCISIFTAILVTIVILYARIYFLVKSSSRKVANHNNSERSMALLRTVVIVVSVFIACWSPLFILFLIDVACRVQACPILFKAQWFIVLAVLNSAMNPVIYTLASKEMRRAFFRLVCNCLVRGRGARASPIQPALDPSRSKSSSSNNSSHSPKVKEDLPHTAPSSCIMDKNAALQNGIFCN
T1 sequence (P21453 whole entry): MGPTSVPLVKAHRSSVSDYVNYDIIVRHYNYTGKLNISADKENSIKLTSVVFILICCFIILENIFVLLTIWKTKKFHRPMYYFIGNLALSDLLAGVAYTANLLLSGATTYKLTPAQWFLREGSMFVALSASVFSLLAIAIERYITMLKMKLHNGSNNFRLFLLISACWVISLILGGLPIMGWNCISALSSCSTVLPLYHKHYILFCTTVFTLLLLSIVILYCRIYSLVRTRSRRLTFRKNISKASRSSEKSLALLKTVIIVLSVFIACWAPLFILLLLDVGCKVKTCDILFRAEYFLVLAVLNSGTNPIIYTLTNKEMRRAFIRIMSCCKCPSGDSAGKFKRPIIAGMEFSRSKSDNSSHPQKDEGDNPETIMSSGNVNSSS
T4 sequence (Q9H228 whole entry): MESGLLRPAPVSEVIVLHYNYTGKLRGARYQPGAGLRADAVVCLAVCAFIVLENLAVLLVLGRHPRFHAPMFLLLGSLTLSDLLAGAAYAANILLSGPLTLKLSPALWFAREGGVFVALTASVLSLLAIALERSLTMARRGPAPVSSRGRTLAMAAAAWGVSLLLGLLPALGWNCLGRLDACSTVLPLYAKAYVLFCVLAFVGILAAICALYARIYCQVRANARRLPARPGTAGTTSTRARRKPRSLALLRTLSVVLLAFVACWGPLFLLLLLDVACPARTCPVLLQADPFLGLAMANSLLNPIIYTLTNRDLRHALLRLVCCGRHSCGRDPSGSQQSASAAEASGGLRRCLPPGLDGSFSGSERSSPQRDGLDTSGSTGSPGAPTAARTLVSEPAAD

For `O=C(O)CCN1CCc2nc(-c3ccc(OCc4cccc(F)c4)cc3F)ccc2C1` [Compound 145, 3-(2-(2-fluoro-4-((3-fluorobenzyl)oxy)phenyl)-7,8-dihydro-1,6-naphthyridin-6(5H)-yl)propanoic acid], the EC50 on human S1PR1 receptor was over 1 µM; on human S1PR3 receptor, over 1 µM; at human S1PR4 receptor, over 1 µM; at human S1PR5 receptor, 0.01 to 0.1 µM.

Take `O=C(O)CCN1CCc2nc(-c3ccc(OCc4ccccc4OC(F)(F)F)cc3)ccc2C1` [Compound 155, 3-(2-(4-((2-trifluoromethoxybenzyl)oxy)phenyl)-7,8-dihydro-1,6-naphthyridin-6(5H)-yl)propanoic acid]: the EC50 on human S1PR1 receptor is over 1 µM; at human S1PR3 receptor, over 1 µM; on human S1PR4 receptor it was over 1 µM; at human S1PR5 receptor, under 0.01 µM.

For `CC(C)(C)c1ccc(COc2ccc(-c3ccc4c(n3)CCN(CCC(=O)O)C4)cc2)cc1` [Compound 156, 3-(2-(4-((4-(tert-butyl)benzyl)oxy)phenyl)-7,8-dihydro-1,6-naphthyridin-6(5H)-yl)propanoic acid], the half-maximal effective concentration (EC50) is over 1 µM on human S1PR1 receptor, over 1 µM on human S1PR3 receptor, over 1 µM at human S1PR4 receptor and under 0.01 µM at human S1PR5 receptor.

Turning to `O=C(O)CCN1CCc2nc(-c3ccc(OCc4cccc(C(F)(F)F)c4)cc3)ccc2C1` [Compound 157, 3-(2-(4-((3-trifluoromethylbenzyl)oxy)phenyl)-7,8-dihydro-1,6-naphthyridin-6(5H)-yl)propanoic acid], the EC50 at human S1PR1 receptor was over 1 µM; on human S1PR3 receptor, over 1 µM; on human S1PR4 receptor, over 1 µM; on human S1PR5 receptor it was under 0.01 µM.

Consider `O=C(O)CCN1CCc2nc(-c3ccc(OCc4cccc(C(F)F)c4)cc3)ccc2C1` [Compound 159, 3-(2-(4-((3-difluoromethylbenzyl)oxy)phenyl)-7,8-dihydro-1,6-naphthyridin-6(5H)-yl)propanoic acid], for which the EC50 at human S1PR1 receptor was over 1 µM; on human S1PR3 receptor, over 1 µM; on human S1PR4 receptor, over 1 µM; at human S1PR5 receptor, under 0.01 µM.

For `Cc1cc(COc2ccc(-c3ccc4c(n3)CCN(CCC(=O)O)C4)cc2)cc(OC(F)(F)F)c1` [Compound 160, 3-(2-(4-((3-trifluoromethoxy-5-(methyl)benzyl)oxy)phenyl)-7,8-dihydro-1,6-naphthyridin-6(5H)-yl)propanoic acid], the EC50 at human S1PR1 receptor was over 1 µM; at human S1PR3 receptor, over 1 µM; at human S1PR4 receptor, over 1 µM; at human S1PR5 receptor, 0.01 to 0.1 µM.

For the molecule `Cc1cc(OC(F)(F)F)ccc1COc1ccc(-c2ccc3c(n2)CCN(CCC(=O)O)C3)cc1` [Compound 161, 3-(2-(4-((2-methyl-4-(trifluoromethoxy)benzyl)oxy)phenyl)-7,8-dihydro-1,6-naphthyridin-6(5H)-yl)propanoic acid], the EC50 is over 1 µM at human S1PR1 receptor, over 1 µM at human S1PR3 receptor, over 1 µM on human S1PR4 receptor and under 0.01 µM at human S1PR5 receptor.

In the case of `O=C(O)CCN1CCc2nc(-c3ccc(OCc4ccc5c(c4)CCC5)cc3)ccc2C1` [Compound 162, 3-(2-(4-((5-indanyl)methoxy)phenyl)-7,8-dihydro-1,6-naphthyridin-6(5H)-yl)propanoic acid], the half-maximal effective concentration (EC50) at human S1PR1 receptor was over 1 µM; on human S1PR3 receptor it was over 1 µM; at human S1PR4 receptor, over 1 µM; on human S1PR5 receptor, under 0.01 µM.

Take `O=C(O)CCN1CCc2nc(-c3ccc(OCc4ccccc4OC(F)F)cc3)ccc2C1` [Compound 163, 3-(2-(4-((2-difluoromethoxybenzyl)oxy)phenyl)-7,8-dihydro-1,6-naphthyridin-6(5H)-yl)propanoic acid]: the concentration giving a half-maximal response (EC50) was over 1 µM on human S1PR1 receptor, over 1 µM at human S1PR3 receptor, over 1 µM at human S1PR4 receptor and under 0.01 µM at human S1PR5 receptor.

In the case of `O=C(O)CCN1CCc2nc(-c3ccc(OCc4ccccc4C(F)F)cc3)ccc2C1` [Compound 165, 3-(2-(4-((2-difluoromethylbenzyl)oxy)phenyl)-7,8-dihydro-1,6-naphthyridin-6(5H)-yl)propanoic acid], the EC50 is over 1 µM on human S1PR1 receptor, over 1 µM on human S1PR3 receptor, over 1 µM at human S1PR4 receptor and under 0.01 µM at human S1PR5 receptor.

As for `O=C(O)CCN1CCc2nc(-c3ccc(OCc4ccc(C(F)F)cc4)cc3)ccc2C1` [Compound 166, 3-(2-(4-((4-difluoromethylbenzyl)oxy)phenyl)-7,8-dihydro-1,6-naphthyridin-6(5H)-yl)propanoic acid], the EC50 on human S1PR1 receptor was over 1 µM; at human S1PR3 receptor, over 1 µM; on human S1PR4 receptor it was over 1 µM; on human S1PR5 receptor, under 0.01 µM.

On to `Cc1cc(-c2ccc3c(n2)CCN(CCC(=O)O)C3)ccc1OCc1ccc(C(F)(F)F)cc1` [Compound 167, 3-(2-(3-methyl-4-((4-(trifluoromethyl)benzyl)oxy)phenyl)-7,8-dihydro-1,6-naphthyridin-6(5H)-yl)propanoic acid], for which the EC50 was over 1 µM on human S1PR1 receptor, over 1 µM at human S1PR3 receptor, over 1 µM on human S1PR4 receptor and under 0.01 µM at human S1PR5 receptor.

Turning to `Cc1cc(-c2ccc3c(n2)CCN(CCC(=O)O)C3)ccc1OCc1ccc(Cl)cc1` [Compound 169, 3-(2-(4-((4-chlorobenzyl)oxy)-3-methylphenyl)-7,8-dihydro-1,6-naphthyridin-6(5H)-yl)propanoic acid], the EC50 is over 1 µM at human S1PR1 receptor, over 1 µM on human S1PR3 receptor, over 1 µM at human S1PR4 receptor and under 0.01 µM at human S1PR5 receptor.

For `Cc1cc(-c2cc3c(cn2)CN(CCC(=O)O)CC3)ccc1OCc1ccc(Cl)cc1` [Compound 172, 3-(6-(4-((4-chlorobenzyl)oxy)-3-methylphenyl)-3,4-dihydro-2,7-naphthyridin-2(1H)-yl)propanoic acid], the EC50 at human S1PR1 receptor is over 1 µM; at human S1PR3 receptor it was over 1 µM; on human S1PR4 receptor, over 1 µM; at human S1PR5 receptor, under 0.01 µM.

For `Cc1cc(-c2cc3c(cn2)CN(CCC(=O)O)CC3)ccc1OCc1ccc(C(F)(F)F)cc1` [Compound 173, 3-(6-((4(4-trifluoromethylbenzyl)oxy)-3-methylphenyl)-3,4-dihydro-2,7-naphthyridin-2(1H)-yl)propanoic acid], the concentration giving a half-maximal response (EC50) is over 1 µM at human S1PR1 receptor, over 1 µM at human S1PR3 receptor, over 1 µM at human S1PR4 receptor and under 0.01 µM at human S1PR5 receptor.

In the case of `O=C(O)CCN1CCc2cc(-c3ccc(OCc4ccc(Cl)cc4)cc3)ncc2C1` [Compound 174, 3-(6-((4(4-chlorobenzyl)oxy)phenyl)-3,4-dihydro-2,7-naphthyridin-2(1H)-yl)propanoic acid], the EC50 on human S1PR1 receptor is over 1 µM; at human S1PR3 receptor, over 1 µM; at human S1PR4 receptor it was over 1 µM; at human S1PR5 receptor, under 0.01 µM.

`O=C(O)CCN1CCc2cc(-c3ccc(OCc4cccc(Cl)c4)cc3)ncc2C1` [Compound 175, 3-(6-(4-((3-chlorobenzyl)oxy)phenyl)-3,4-dihydro-2,7-naphthyridin-2(1H)-yl)propanoic acid]: the EC50 was over 1 µM on human S1PR1 receptor, over 1 µM at human S1PR3 receptor, over 1 µM at human S1PR4 receptor and under 0.01 µM on human S1PR5 receptor.

With `O=C(O)CCN1CCc2cc(-c3ccc(OCc4cccc(F)c4)cc3)ncc2C1` [Compound 176, 3-(6-(4-((3-fluorobenzyl)oxy)phenyl)-3,4-dihydro-2,7-naphthyridin-2(1H)-yl)propanoic acid], the EC50 on human S1PR1 receptor is over 1 µM; on human S1PR3 receptor, over 1 µM; on human S1PR4 receptor, over 1 µM; on human S1PR5 receptor, under 0.01 µM.

Consider `O=C(O)CCN1CCc2nc(-c3ccc(OCc4ccccc4)cc3)cnc2C1` [Compound 177, 3-(2-(4-(benzyloxy)phenyl)-7,8-dihydropyrido[3,4-b]pyrazin-6(5H)-yl)propanoic acid], for which the EC50 at human S1PR1 receptor is over 1 µM; on human S1PR3 receptor it was over 1 µM; at human S1PR4 receptor it was over 1 µM; at human S1PR5 receptor, under 0.01 µM.

Regarding `O=C(O)CCN1CCc2nc(-c3ccc(OCc4ccc(Cl)cc4)cc3)cnc2C1` [Compound 178, 3-(2-(4-((4-chlorobenzyl)oxy)phenyl)-7,8-dihydropyrido[3,4-b]pyrazin-6(5H)-yl)propanoic acid], the concentration for a half-maximal effect (EC50) at human S1PR1 receptor is over 1 µM; at human S1PR3 receptor it was over 1 µM; at human S1PR4 receptor it was over 1 µM; at human S1PR5 receptor, under 0.01 µM.

Turning to `O=C(O)CCN1CCc2nc(-c3ccc(OCc4cccc(Cl)c4)cc3)cnc2C1` [Compound 179, 3-(2-(4-((3-chlorobenzyl)oxy)phenyl)-7,8-dihydropyrido[3,4-b]pyrazin-6(5H)-yl)propanoic acid], the 50% effective concentration (EC50) at human S1PR1 receptor was over 1 µM; on human S1PR3 receptor, under 1 µM; at human S1PR4 receptor, over 1 µM; on human S1PR5 receptor, under 0.01 µM.

Consider `CC(CCN1CCc2nc(-c3ccc(OCc4ccccc4)cc3)c(F)cc2C1)C(=O)O` (stereo not shown) [Compound 180, 4-(2-(4-(benzyloxy)phenyl)-3-fluoro-7,8-dihydro-1,6-naphthyridin-6(5H)-yl)-2-methylbutanoic acid], for which the EC50 was under 1 µM at human S1PR1 receptor, over 1 µM on human S1PR3 receptor, over 1 µM at human S1PR4 receptor and under 0.01 µM on human S1PR5 receptor.
